Reference: PubChem BioAssay (NCI)
Several values for one entry are separate records, joined by “and”; a condition that tells them apart may be missing. Equal values may be shown once.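 Where inhibition never reached the appropriate level, the endpoint shown equals the highest concentration tested. Otherwise, values were interpolated linearly from a five-concentration, 48-hour dose response in 96-well plates. GI50 is the concentration that inhibits growth by half. Definition used: TGI = concentration required for complete inhibition of growth.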

Tests used:
Assay in all cases: growth of human tumour cells (NCI), 48 h
[1] = tested on: MOLT-4 leukemia
[2] = tested on: SF-539 CNS
[3] = tested on: MDA-MB-435
[4] = tested on: M14 melanoma
[5] = tested on: DU-145 prostate
[6] = tested on: HS 578T breast
[7] = tested on: OVCAR-8 ovarian
[8] = tested on: LOX IMVI melanoma
[9] = tested on: U251 CNS
[10] = tested on: SK-MEL-28 melanoma

`CCN(CC)CCn1c2ccc(OC)cc2c2sc3cc(OC)ccc3c(=O)c21` was tested, and the GI50 [1] was 0.383 µM, the TGI [1] was 1.89 µM and the GI50 [2] was 1.66 µM. The TGI [2] was 3.05 µM, the GI50 [3] was 1.73 µM and the TGI [3] was 3.22 µM. It also gave a GI50 [4] of 1.64 µM, a TGI [4] of 3.08 µM and a GI50 [5] of 1.67 µM. It also gave a TGI [5] of 3.7 µM, a GI50 [6] of 1.96 µM and a TGI [6] of 4.98 µM. For the same molecule, the GI50 [7] was 1.93 µM, the TGI [7] was 11.3 µM and the GI50 [8] was 1.3 µM. The TGI [8] was 2.74 µM, the GI50 [9] was 1.55 µM and the TGI [9] was 3.63 µM. For the same molecule, the GI50 [10] was 1.7 µM and the TGI [10] was 3.12 µM.
`Nc1cc(S(N)(=O)=O)ccc1SSc1ccc(S(N)(=O)=O)cc1N` gave a TGI [1] greater than 100 µM, a TGI [2] greater than 100 µM and a TGI [3] greater than 100 µM. It also gave a TGI [4] greater than 100 µM, a TGI [5] greater than 100 µM and a TGI [6] greater than 100 µM. For the same molecule, the TGI [7] was greater than 100 µM, the TGI [8] was greater than 100 µM and the TGI [9] was greater than 100 µM. The TGI [10] was greater than 100 µM.
Molecule `CC(C)C[C@H](NC(=O)CCn1ccc2ncccc2c1=O)B(O)O` has a GI50 [1] of 2.9 µM, a TGI [1] greater than 28.7 µM and a GI50 [2] of 2.96 µM. For the same molecule, the TGI [2] was 9.03 µM, the GI50 [3] was 2.6 µM and the TGI [3] was 8.86 µM. For the same molecule, the GI50 [4] was 5.45 µM, the TGI [4] was greater than 47.3 µM and the GI50 [5] was 19.6 µM. For the same molecule, the TGI [5] was greater than 100 µM, the GI50 [6] was 13.2 µM and the TGI [6] was greater than 71.7 µM. The GI50 [7] was 27.4 µM, the TGI [7] was greater than 100 µM and the GI50 [8] was 4.53 µM. The TGI [8] was 18.7 µM, the GI50 [9] was 24.9 µM and the TGI [9] was greater than 100 µM. It also gave a GI50 [10] of 6.8 µM and a TGI [10] greater than 76.7 µM.
`Cc1cnccc1N=Nc1ccc(N(C)C)cc1` was tested, and the TGI [1] was 79.5 µM, the TGI [2] was 69.2 µM and the TGI [3] was 41.2 µM. For the same molecule, the TGI [4] was greater than 100 µM, the TGI [5] was greater than 100 µM and the TGI [6] was greater than 100 µM. For the same molecule, the TGI [7] was 60.1 µM, the TGI [8] was 53.9 µM and the TGI [9] was 70.9 µM. It also gave a TGI [10] of 52.7 µM.
For `CN1C[C@@H]2Cn3c(c(C4=C(c5cn(C)c6ccccc56)C(=O)NC4=O)c4ccccc43)C[C@H]2C1`, the GI50 [1] was 5.46 µM and 3.49 µM, the TGI [1] was 16.8 µM and 11.9 µM and the GI50 [2] was 3.97 µM and 3.57 µM. The TGI [2] was 7.83 µM and 7.12 µM, the GI50 [3] was 3.43 µM and 3.16 µM and the TGI [3] was 7.09 µM. For the same molecule, the GI50 [4] was 4.07 µM and 3.96 µM, the TGI [4] was 8.24 µM and 7.83 µM and the GI50 [5] was 6.27 µM and 5.46 µM. For the same molecule, the TGI [5] was 16.3 µM and 14.7 µM, the GI50 [6] was 2.71 µM and 2.63 µM and the TGI [6] was 8.34 µM and 9.51 µM. The GI50 [7] was 4.74 µM and 4.35 µM, the TGI [7] was 11.4 µM and 11.1 µM and the GI50 [8] was 4.16 µM and 3.96 µM. The TGI [8] was 7.9 µM and 7.86 µM, the GI50 [9] was 3.59 µM and 2.83 µM and the TGI [9] was 7.27 µM and 6.37 µM. For the same molecule, the GI50 [10] was 4.34 µM and 4.35 µM and the TGI [10] was 8.62 µM and 8.47 µM.
Work on `COc1cccc(CCC(=O)c2cc3c(N)c(C(=O)Nc4cccc(Cl)c4C)sc3nc2C)c1` yielded a GI50 [1] of 0.77 µM, a TGI [1] greater than 100 µM and a GI50 [2] of 0.408 µM. For the same molecule, the TGI [2] was 2.78 µM, the GI50 [3] was 0.197 µM and the TGI [3] was 0.612 µM. It also gave a GI50 [4] of 0.446 µM, a TGI [4] greater than 100 µM and a GI50 [5] of 1.91 µM. The TGI [5] was greater than 100 µM, the GI50 [6] was 0.343 µM and the GI50 [7] was 1.44 µM. For the same molecule, the TGI [7] was greater than 100 µM, the GI50 [8] was 0.664 µM and the TGI [8] was greater than 100 µM. For the same molecule, the GI50 [9] was 0.445 µM, the TGI [9] was greater than 100 µM and the GI50 [10] was 0.981 µM. The TGI [10] was greater than 100 µM.
For `COC(=O)[C@H](C)NC(=O)[C@@H](OC)[C@@H]1Cc2cc3cc(OC4CC(OC5CC(O)C(O)C(C)O5)C(O)C(C)O4)c(C)c(O)c3c(O)c2C(=O)[C@H]1OC1CC(OC2CC(OC3CC(C)(O)C(O)C(C)O3)C(O)C(C)O2)C(O)C(C)O1` (some centres undefined), the GI50 [1] was 0.232 µM, the TGI [1] was 4.13 µM and the GI50 [2] was 0.0478 µM. For the same molecule, the TGI [2] was 2.62 µM, the GI50 [3] was 0.0755 µM and the TGI [3] was 0.905 µM. It also gave a GI50 [4] of 0.113 µM, a TGI [4] of 1.41 µM and a GI50 [5] of 0.146 µM. It also gave a TGI [5] greater than 50 µM, a GI50 [6] of 0.0983 µM and a TGI [6] of 2.17 µM. The GI50 [7] was 0.0461 µM, the TGI [7] was greater than 50 µM and the GI50 [8] was 0.0308 µM. For the same molecule, the TGI [8] was greater than 50 µM, the GI50 [9] was 0.073 µM and the TGI [9] was greater than 50 µM. The GI50 [10] was 0.0309 µM and the TGI [10] was 0.351 µM.
`CCNNC(=O)[C@@H]1[C@H](c2cc(OC)c(OC)c(OC)c2)c2cc3c(cc2[C@H](O)[C@H]1CO)OCO3` showed a GI50 [1] of 0.4 µM, a TGI [1] greater than 100 µM and a GI50 [2] of 0.294 µM. It also gave a TGI [2] of 0.802 µM, a GI50 [3] of 0.24 µM and a TGI [3] of 0.697 µM. For the same molecule, the GI50 [4] was 0.369 µM, the TGI [4] was greater than 100 µM and the GI50 [5] was 0.537 µM. For the same molecule, the TGI [5] was greater than 100 µM, the GI50 [6] was 0.376 µM and the TGI [6] was greater than 100 µM. The GI50 [7] was 0.692 µM, the TGI [7] was greater than 100 µM and the GI50 [8] was 0.357 µM. The TGI [8] was greater than 100 µM, the GI50 [9] was 0.321 µM and the TGI [9] was greater than 100 µM. For the same molecule, the GI50 [10] was 0.599 µM and the TGI [10] was greater than 100 µM.
`Nc1ccc(C(OC(=O)c2cc3ccccc3c(Cc3c(O)c(C(=O)OC(c4ccc(N)cc4)(c4ccc(N)cc4)c4ccc(N)cc4)cc4ccccc34)c2O)(c2ccc(N)cc2)c2ccc(N)cc2)cc1` gave a GI50 [1] of 4.33 µM, a TGI [1] of 86.1 µM and a GI50 [2] of 0.362 µM. For the same molecule, the TGI [2] was 14.2 µM, the GI50 [3] was 2.5 µM and the TGI [3] was 30.3 µM. It also gave a GI50 [4] of 0.993 µM, a TGI [4] of 19.1 µM and a GI50 [5] of 2.18 µM. For the same molecule, the TGI [5] was 15 µM, the GI50 [6] was 0.201 µM and the TGI [6] was 0.867 µM. For the same molecule, the GI50 [7] was 0.388 µM, the TGI [7] was 36.6 µM and the GI50 [8] was 1.41 µM. The TGI [8] was 43.4 µM, the GI50 [9] was 0.248 µM and the TGI [9] was 12.6 µM. The GI50 [10] was 3.49 µM and the TGI [10] was 16.4 µM.
Work on `O=c1oc2c3ccc4cnccc4c3[nH]c2c2ccccc12` yielded a GI50 [1] of 4.83 µM, a TGI [1] of 25.4 µM and a GI50 [2] of 11.5 µM. The TGI [2] was 25.2 µM, the GI50 [3] was 18.1 µM and the TGI [3] was 34.2 µM. The GI50 [4] was 13.4 µM, the TGI [4] was 26.6 µM and the GI50 [5] was 12.3 µM. The TGI [5] was 32.9 µM, the GI50 [6] was 21.3 µM and the TGI [6] was greater than 100 µM. The GI50 [7] was 16.1 µM, the TGI [7] was greater than 100 µM and the GI50 [8] was 12.1 µM. For the same molecule, the TGI [8] was 28.2 µM, the GI50 [9] was 7.57 µM and the TGI [9] was 20.8 µM. For the same molecule, the GI50 [10] was 16.4 µM and the TGI [10] was 32 µM.
`COc1cc(C2CC(=O)Nc3c2ccc2ccccc32)cc(Br)c1OC` (centres undefined) was tested, and the GI50 [1] was 0.45 µM, the TGI [1] was 12.4 µM and the GI50 [2] was 0.583 µM. The TGI [2] was 15.1 µM, the GI50 [3] was 0.138 µM and the TGI [3] was 0.464 µM. For the same molecule, the GI50 [4] was 0.308 µM, the TGI [4] was 2.7 µM and the GI50 [5] was 0.653 µM. The TGI [5] was greater than 38.2 µM, the GI50 [6] was 0.376 µM and the TGI [6] was greater than 23.2 µM. It also gave a GI50 [7] of 0.772 µM, a TGI [7] greater than 51.1 µM and a GI50 [8] of 0.452 µM. It also gave a TGI [8] greater than 33.5 µM, a GI50 [9] of 0.433 µM and a TGI [9] greater than 37.9 µM. The GI50 [10] was 0.805 µM and the TGI [10] was greater than 100 µM.
For `O=S(=O)(NC1=NCCN1C(=S)SN1CCn2c1nsc2=S)c1ccccc1Cl`, the GI50 [1] was 2.02 µM, the TGI [1] was 14.1 µM and the GI50 [2] was 12.9 µM. The TGI [2] was 31.5 µM, the GI50 [3] was 8.67 µM and the TGI [3] was 29.2 µM. The GI50 [4] was 12.8 µM, the TGI [4] was 27.1 µM and the GI50 [5] was 9.15 µM. For the same molecule, the TGI [5] was 53.1 µM, the GI50 [6] was 29.6 µM and the TGI [6] was greater than 100 µM. For the same molecule, the GI50 [7] was 28.6 µM, the TGI [7] was greater than 100 µM and the GI50 [8] was 16.5 µM. The TGI [8] was 62.9 µM, the GI50 [9] was 21.4 µM and the TGI [9] was 46 µM. It also gave a GI50 [10] of 16.1 µM and a TGI [10] of 65.7 µM.
